In article PMC3025325, “Identification of a κ-opioid agonist as a potent and selective lead for drug development against human African trypanosomiasis” (Biochemical Pharmacology, 2010):
Counter-ions that a name gives are not always drawn. Like-named read-outs stand apart in the source and are kept apart here.

Tests used:
[1] = tested on: bloodstream forms of Trypanosoma brucei; assay: Resazurin cell viability assay, EC50 determinations against T. brucei; assay type: cell-based, T. b. brucei (strain 427)
MRC5 cells = assay: Resazurin cell viability counter-screen, EC50 determinations against mammalian cells; assay type: cell-based, human
[2] = Trypanosoma brucei, 72 h, read-out: EC50 vs. T. brucei
[3] = Homo sapiens, MRC5, 72 h, read-out: EC50 vs. MRC5
[4] = Trypanosoma brucei, 72 h, LOPAC hits (library screening), 3 days incubation, mean of 3 determinations weighted to standard error, read-out: EC50 vs. T. brucei
[5] = Homo sapiens, MRC5, 72 h, 3 days incubation, mean of 4 determinations weighted to standard error, read-out: EC50 vs. MRC5
[6] = Trypanosoma brucei, 72 h, LOPAC hits, 3 days incubation, mean of 3 determinations weighted to standard error, read-out: EC50 vs. T. brucei
[7] = Trypanosoma brucei, 72 h, read-out: EC50 of standard drugs against T. brucei
[8] = read-out: EC50 of standard drugs against T. brucei

Molecule	EC50 [1, 2] [nM]	Selectivity (MRC5 cells)	EC50 (MRC5 cells; [3]) [nM]	also measured
CCn1cnc2c(Nc3cccc(Cl)c3)nc(N[C@@H]3CCCC[C@@H]3N)nc21.Cl (relative stereo) [CGP-74514A, N^2-(cis-2-Aminocyclohexyl)-N^6-(3-chlorophenyl)-9-ethyl-9H-purine-2,6-diamine HCl]	210 ± 8.3	7.1	1500 ± 620	–
NC[C@@H]1O[C@H](C23CC4CC(CC(C4)C2)C3)Cc2c1ccc(O)c2O (single isomer, unassigned; (-)) [A-77636 hydrochloride]	–	–	–	EC50 ([1]; read-out: EC50 vs. T. brucei): 2210 ± 150 nM
Nc1ncnc2c1nc(Sc1ccc(Cl)cc1)n2C1OC2COP(=O)(O)O[C@H]2C1O (stereo in doubt) [8-(4-Chlorophenylthio)-cAMP sodium]	–	44	–	–
N=C(N)SCCc1cccc(CCSC(=N)N)c1 [1,3-PBIT dihydrobromide, Phenylene-1,3-bis(ethane-2-isothiourea) dihydrobromide]	–	–	–	EC50 ([1]; read-out: EC50 vs. T. brucei): 1580 ± 80 nM
Nc1ccn([C@H]2CC[C@@H](CO)O2)c(=O)n1 [2′,3′-Dideoxycytidine]	> 10000	–	–	–
O=C(O)c1cc[c]([Hg][Cl])cc1 [4-Chloromercuribenzoic acid]	–	27	–	EC50 ([1]; read-out: EC50 vs. T. brucei): 690 ± 85 nM
COc1cc2c(CCNC(C)=O)c[nH]c2cc1O [6-Hydroxymelatonin]	–	–	–	EC50 ([1]; read-out: EC50 vs. T. brucei): 3310 ± 230 nM
Nc1ncnc2c1nc(Sc1ccc(Cl)cc1)n2[C@H]1OC2COP(=O)(O)O[C@H]2[C@@H]1O (stereo partly shown) [8-(4-Chlorophenylthio)-cAMP sodium]	–	–	–	EC50 ([1]; read-out: EC50 vs. T. brucei): 400 ± 54 nM
CCCn1c(=O)c2[nH]c(C3CCCC3)nc2n(CCC)c1=O [8-Cyclopentyl-1,3-dipropylxanthine]	530 ± 53	31	–	–
CC[C@@]1(O)C(=O)OCc2c1cc1n(c2=O)Cc2cc3ccccc3nc2-1 [(S)-(+)-Camptothecin]	–	1.5	–	EC50 ([1]; read-out: EC50 vs. T. brucei): 530 ± 13 nM; EC50 (MRC5 cells; read-out: EC50 vs. MRC5): 800 ± 99 nM
O=C1Cc2c([nH]c3ccc([N+](=O)[O-])cc23)-c2ccccc2N1 [Alsterpaullone]	400 ± 40	1.3	510 ± 170	–
CC1(C)CCC2=C(O1)c1ccccc1C(=O)C2=O [Beta-Lapachone]	850 ± 130	10	8600 ± 2900	–
C=CCc1ccccc1OCC(O)CNC1(C)CCC(C(C)(C)NC(=O)CBr)CC1 (stereo not shown) [Bromoacetyl alprenolol menthane]	1260 ± 140	–	–	–
NC(=O)c1cc(N2CC2)c([N+](=O)[O-])cc1[N+](=O)[O-] [CB 1954, 5-(1-Aziridinyl)-2,4-dinitrobenzamide]	1080 ± 90	–	–	–
Nc1nc2ccc(Cl)cc2c2nc(-c3ccco3)nn12 [CGS-15943, 9-Chloro-2-(2-furyl)[1,2,4]triazolo[1,5-c]quinazolin-5-amine]	1970 ± 210	–	–	–
O=C(/C=C/c1ccc(O)c(O)c1)OCCc1ccccc1 [Caffeic acid phenethyl ester]	1640 ± 130	–	–	–
CNc1ccc2oc(C[C@H]3O[C@@]4(CC[C@H]3C)O[C@H]([C@H](C)C(=O)c3ccc[nH]3)[C@H](C)C[C@H]4C)nc2c1C(=O)O [Calcimycin]	180 ± 13	4.2	750 ± 140	–
Clc1ccc(C(c2ccc(Cl)cc2)n2cc[n+](CC(OCc3ccc(Cl)cc3Cl)c3ccc(Cl)cc3Cl)c2)cc1 (stereo not shown) [Calmidazolium chloride]	510 ± 66	13	6600 ± 750	–
COc1ccc2c(c[n+](C)c3c4cc5c(cc4ccc23)OCO5)c1OC [Chelerythrine chloride]	–	42	–	EC50 [1, 4]: 59 ± 5.7 nM; EC50 (MRC5 cells; [5]): 2500 ± 480 nM
CN(N=O)c1cc(O)ccc1O [Dephostatin]	> 10000	–	–	–
Cc1cc(N)c2ccccc2[n+]1CCCCCCCCCC[n+]1c(C)cc(N)c2ccccc21 [Dequalinium dichloride]	43 ± 8.8	140	6100 ± 1500	Selectivity / specificity for T. brucei over human fibroblasts (MRC5 cells): greater than 100 fold
CC(C)[C@@]1(NC(=O)[C@@H]2C[C@@H]3c4cccc5[nH]cc(c45)C[C@H]3N(C)C2)O[C@@]2(O)[C@@H]3CCCN3C(=O)[C@H](Cc3ccccc3)N2C1=O.CS(=O)(=O)O [Dihydroergocristine methanesulfonate]	–	23	–	EC50 ([1]; read-out: EC50 vs. T. brucei): 890 ± 57 nM
c1ccc2c(c1)[I+]c1ccccc1-2 [Diphenyleneiodonium chloride]	120 ± 7.6	5.7	700 ± 870	–
CCCN(CCC)CCc1ccc(O)c(O)c1 [Dipropyldopamine hydrobromide]	1290 ± 60	–	–	–
COc1cccc2c1C(=O)c1c(O)c3c(c(O)c1C2=O)C[C@@](O)(C(=O)CO)C[C@@H]3O[C@H]1C[C@H](N)[C@H](O)[C@H](C)O1 [Doxorubicin]	–	–	–	EC50 (MRC5 cells; Homo sapiens, MRC5, 72 h, read-out: EC50 against MRC5 (control drug)): 85.9 ± 38.2 nM

Molecule	EC50 [1, 2] [nM]	Selectivity (MRC5 cells)	EC50 (MRC5 cells; [3]) [nM]	also measured
Cc1c2ccncc2c(C)c2c1[nH]c1ccccc12 [Ellipticine]	–	3.7	–	EC50 [1, 4]: 460 ± 45 nM; EC50 (MRC5 cells; [5]): 1700 ± 620 nM
CC[C@H]1CN2CCc3cc(OC)c(OC)cc3[C@@H]2C[C@@H]1C[C@H]1NCCc2cc(OC)c(OC)cc21 [Emetine dihydrochloride hydrate]	–	–	–	EC50 [1, 4]: 7.9 ± 0.53 nM; EC50 (MRC5 cells; [5]): 30 ± 3.1 nM
CC(=O)[C@]1(O)Cc2c(O)c3c(c(O)c2[C@@H](O[C@H]2C[C@H](N)[C@H](O)[C@H](C)O2)C1)C(=O)c1ccccc1C3=O [Idarubicin]	20 ± 1.5	3.9	78 ± 29	–
O=C1Nc2ccccc2/C1=C1/Nc2ccccc2/C1=N\O [Indirubin-3′-oxime]	–	–	–	EC50 ([1]; read-out: EC50 vs. T. brucei): 1280 ± 90 nM
O=C1Cc2c([nH]c3ccc(Br)cc23)-c2ccccc2N1 [Kenpaullone]	1860 ± 270	–	–	–
CC[C@H](C)C(=O)O[C@H]1CCC=C2C=C[C@H](C)[C@H](CC[C@@H]3C[C@@H](O)CC(=O)O3)[C@H]21 [Mevastatin]	–	2.2	2000 ± 360	EC50 [1, 4]: 940 ± 50 nM
O=C1c2c(O)ccc(O)c2C(=O)c2c(NCCNCCO)ccc(NCCNCCO)c21 [Mitoxantrone]	2.4 ± 0.2	46	110 ± 37	–
O=C1CC[C@@]2(O)[C@H]3Cc4ccc(O)c5c4[C@@]2(CCN3CC2CC2)[C@H]1O5 [Naltrexone]	–	–	–	EC50 ([1]; Trypanosoma brucei, read-out: EC50 of opioid receptor ligands against T. brucei): > 100000 nM
C=C1C(=O)O[C@H]2[C@H]1CC/C(C)=C/CC[C@@]1(C)O[C@@H]21 [Parthenolide]	–	–	–	EC50 [1, 6]: 1060 ± 80 nM
O=c1[nH]c2ccccc2n1C1CCN(CCCC(c2ccc(F)cc2)c2ccc(F)cc2)CC1 [Pimozide]	340 ± 19	41	–	–
CC(C)[C@H](CO)Nc1nc(Nc2cccc(Cl)c2)c2ncn(C(C)C)c2n1 [Purvalanol A]	820 ± 55	12	–	–
CCN(CC)CCCC(C)Nc1c2ccc(Cl)cc2nc2ccc(OC)cc12 (stereo not shown) [Quinacrine dihydrochloride]	380 ± 13	5.0	1900 ± 440	–
CCCN1CCc2cccc3c2[C@H]1Cc1ccc(O)c(O)c1-3 [R(−)-Propylnorapomorphine hydrochloride]	–	–	–	EC50 ([1]; read-out: EC50 vs. T. brucei): 1520 ± 210 nM
CC1=C(/C=C/C(C)=C/C=C/C(C)=C/C(=O)Nc2ccc(O)cc2)C(C)(C)CCC1 [Retinoic acid p-hydroxyanilide]	–	–	–	EC50 ([1]; read-out: EC50 vs. T. brucei): 2230 ± 270 nM
O=[N+]([O-])c1ccc(CSc2ncnc3c2ncn3[C@@H]2O[C@H](CO)[C@@H](O)[C@H]2O)cc1 [S-(4-Nitrobenzyl)-6-thioinosine]	3780 ± 550	–	–	–
[N-]=[N+]=Nc1ccc(C(=O)CSC[C@H](NC(=O)CC[C@H](N)C(=O)O)C(=O)NCC(=O)O)cc1 [S-(p-Azidophenacyl)glutathione]	–	–	–	EC50 ([1]; read-out: EC50 vs. T. brucei): > 10000 nM
Cc1nc(-c2ccc(-c3ccc(C(=O)N4CCc5cc6c(cc54)C4(CCN(C)CC4)CO6)cc3)c(C)c2)no1 [SB 224289 hydrochloride, 1′-Methyl-5-([2′-methyl-4′-(5-methyl-1,2,4-oxadiazol-3-yl)biphenyl-4-yl]carbonyl)-2,3,6,7-tetrahydro-spiro(furo[2,3-f]indole-3,4′-piperidine)]	–	–	–	EC50 [1, 6]: 1350 ± 280 nM
Br.CN1Cc2sccc2C(c2ccc(O)c(O)c2)C1 (stereo not shown) [SKF 89145 hydrobromide, 4-(3,4-Dihydroxyphenyl)-6-methyl-4,5,6,7-tetrahydrothieno[2,3-c]pyridine HBr]	610 ± 44	4.7	2900 ± 200	–
C[n+]1cc2c3c(ccc2c2ccc4cc5c(cc4c21)OCO5)OCO3 [Sanguinarine chloride]	240 ± 17	5.8	1400 ± 350	–
CCCCCCCCCCCCC/C=C/[C@@H](O)[C@@H](N)CO [Sphingosine]	820 ± 78	5.7	4600 ± 2500	–
Cc1ccc(C(=O)Nc2ccc(S(=O)(=O)O)c3cc(S(=O)(=O)O)cc(S(=O)(=O)O)c23)cc1NC(=O)c1cccc(NC(=O)Nc2cccc(C(=O)Nc3cc(C(=O)Nc4ccc(S(=O)(=O)O)c5cc(S(=O)(=O)O)cc(S(=O)(=O)O)c45)ccc3C)c2)c1 [Suramin hexasodium]	< 70	>710	> 50000	EC50 [1, 7]: 20.1 ± 1.1 nM; EC50 ([1]; read-out: EC50 vs. T. brucei): 68 ± 3.5 nM; Selectivity / specificity for T. brucei over human fibroblasts (MRC5 cells): > 700 fold
CC(=O)O[C@H]1C(=O)[C@@]2(C)[C@H]([C@H](OC(=O)c3ccccc3)[C@]3(O)C[C@H](OC(=O)[C@H](O)[C@@H](NC(=O)c4ccccc4)c4ccccc4)C(C)=C1C3(C)C)[C@]1(OC(C)=O)CO[C@@H]1C[C@@H]2O [Taxol]	3.3 ± 0.071	2	6.6 ± 9.8	–
Nc1nc(N)nc(Nc2ccc([As]3SCC(CO)S3)cc2)n1 (stereo not shown) [melarsoprol]	–	–	–	EC50 [1, 7]: 7.52 ± 0.28 nM; EC50 [1, 8]: 8 nM
CC1CS(=O)(=O)CCN1/N=C/c1ccc([N+](=O)[O-])o1 (stereo not shown) [nifurtimox]	–	–	–	EC50 [1, 7]: 1800 nM; EC50 [1, 8]: 1810 ± 130 nM
Buprenorphine	–	–	–	Activity against T. brucei (in words) [1]: weak activity
